Test results reported in ChEMBL document CHEMBL1828599, “Synthesis, fluorescence and biodistribution of a bone-targeted near-infrared conjugate” (Eur J Med Chem, 2011).

How the values were obtained:
Mus musculus [1] = assay: Biodistribution in bone joint of BALB/C mouse at 1.7 x 10^-6 mol/kg, iv as single dose measured at 24 hrs by fluorescence imaging technique; type: ADME, organism-based, Bone element; details: in vivo
Liver [2] = assay: Biodistribution in liver of BALB/C mouse at 1.7 x 10^-6 mol/kg, iv as single dose measured up to 60 mins by fluorescence imaging technique; type: ADME, organism-based; details: in vivo, 1 h
Duodenum = assay: Biodistribution in duodenum of BALB/C mouse at 1.7 x 10^-6 mol/kg, iv as single dose measured at 4 hrs by fluorescence imaging technique; type: ADME, organism-based; details: in vivo
Liver [3] = assay: Biodistribution in liver of BALB/C mouse at 1.7 x 10^-6 mol/kg, iv as single dose measured at 4 hrs by fluorescence imaging technique; type: ADME, organism-based; details: in vivo
Kidney = assay: Biodistribution in Kidney of BALB/C mouse at 1.7 x 10^-6 mol/kg, iv as single dose measured at 4 hrs by fluorescence imaging technique; type: ADME, organism-based; details: in vivo
Mus musculus [4] = assay: Biodistribution in bone joint of BALB/C mouse at 1.7 x 10^-6 mol/kg, iv as single dose measured at 16 days by fluorescence imaging technique; type: ADME, organism-based, Bone element; details: in vivo, 384 h
Mus musculus [5] = assay: Biodistribution in soft tissue of BALB/C mouse at 1.7 x 10^-6 mol/kg, iv as single dose measured at 24 hrs by fluorescence imaging technique; type: ADME, organism-based; details: in vivo
Mus musculus [6] = assay: Biodistribution in leg bone of BALB/C mouse at 1.7 x 10^-6 mol/kg, iv as single dose measured at 24 hrs by fluorescence imaging technique; type: ADME, organism-based, Bone element; details: in vivo
Mus musculus [7] = assay: Biodistribution in hip bone of BALB/C mouse at 1.7 x 10^-6 mol/kg, iv as single dose measured at 24 hrs by fluorescence imaging technique; type: ADME, organism-based, Bone of hip region; details: in vivo
Mus musculus [8] = assay: Biodistribution in bone joint of BALB/C mouse at 1.7 x 10^-6 mol/kg, iv as single dose measured up to 8 days by fluorescence imaging technique; type: ADME, organism-based, Bone element; details: in vivo, 192 h

Drug uptake (Mus musculus [1])	Drug uptake (Liver [2])	Drug uptake (Duodenum)	Drug uptake (Liver [3])	Drug uptake (Kidney)	SMILES	Drug uptake (Mus musculus [4])	Drug uptake (Mus musculus [5])	Drug uptake (Mus musculus [6])	Drug uptake (Mus musculus [7])	Drug uptake (Mus musculus [8])
Not Active	Active	Active	Active	Active	CC1(C)C(/C=C/C=C/C=C/C=C2\N(CCCCC(=O)O)c3ccc4ccccc4c3C2(C)C)=[N+](CCCCC(=O)[O-])c2ccc3ccccc3c21	–	–	–	–	–
–	–	–	–	–	CC1(C)C(/C=C/C=C/C=C/C=C2\N(CCCCC(=O)CCCC(O)(P(=O)([O-])O)P(=O)(O)O)c3ccc4ccccc4c3C2(C)C)=[N+](CCCCS(=O)(=O)[O-])c2ccc3ccccc3c21.[Na+]	Not Active	Not Active	Active	Active	Active
Not Active	Active	Active	Active	Active	CC1(C)C(/C=C/C=C/C=C/C=C2\N(CCCCC(=O)O)c3ccc4ccccc4c3C2(C)C)=[N+](CCCCS(=O)(=O)[O-])c2ccc3ccccc3c21	–	–	–	–	–
Active	Active	Active	Active	Active	CC1(C)C(/C=C/C=C/C=C/C=C2/N(CCCCS(=O)(=O)[O-])c3ccc4ccccc4c3C2(C)C)=[N+](CCCCS(=O)(=O)[O-])c2ccc3ccccc3c21.[Na+] [INDOCYANINE GREEN]	–	–	–	–	–
